Test results published in US10301292B2, “Bicyclic compound” (Takeda Pharmaceutical Company Limited, priority 2014, dated 2019).
One block for each compound: values may come before it.

How the values were obtained:
human ACC1 = biological target: T1, human ACC1 (Homo sapiens, UniProt Q13085); test: Measurement of ACC1 inhibitory activity (Malonyl-CoA production, RapidFire-mass spectrometry); type: biochemical; details: 10 μM of the test compound; recombinant human ACC1; read-out: ACC1 inhibitory rate (%) at 10 μM
T1 construct: His tag (from vector pFAST-BacHTc; protein captured on Ni-NTA) (N); made in house; host or cells: SF-9 insect cells, recombinant baculovirus BAC-ACC1
Procedure: (1) Cloning of Human ACC1 Gene and Preparation of Recombinant Baculovirus
Human ACC1 gene was cloned by PCR using a human liver cDNA library (Clontech) as a template and Primer 1 and Primer 2 shown below. Primer 1 and Primer 2 were prepared by adding SalI, NotI restriction enzyme recognition sequences based on the information of the base sequence of human ACC1 gene (Genbank Accession U19822).
PCR was performed using Pyrobest DNA polymerase (TAKARA BIO INC.). The obtained PCR product was cloned to pT7 Blue vector (Novagen) and after confirmation of the base sequence, digested with restriction enzymes SalI and XbaI. The obtained DNA fragment was inserted into pFAST-BacHTc (Invitrogen) digested with restriction enzymes SalI and XbaI to give expression plasmid ACC1/pFAST-BacHTc.
Using the expression plasmid ACC1/pFAST-BacHTc and BAC-TO-BAC Baculovirus Expression System (Invitrogen), virus stock BAC-ACC1 of recombinant Baculovirus was prepared.
(2) Preparation of ACC1 Protein
SF-9 cells (Invitrogen) were inoculated to a medium (10 L) for insect cells (Sf-900IISFM medium (Invitrogen) containing 5% fetal bovine serum (Trace), 50 mg/L Gentamicin (Wako Pure Chemical Industries, Ltd.), 0.1% Pluronic F-68 (Invitrogen)) at 1.0×10^6 cells/mL, and cultured with shaking in Wave Bioreactor (GE Healthcare) at 27° C., 20 rpm, rocking angle 10°, oxygen concentration 30%.
On day 2 of the culture, recombinant Baculovirus BAC-ACC1 was added, and the cells were cultured for 3 days. The culture medium was centrifuged at 4000×g for 10 min to give virus-infected cells. The cells were washed with phosphate buffered saline (Invitrogen) and centrifuged under the same conditions. The obtained cells were cryopreserved at −80° C.
The cryopreserved cells were thawed in ice and suspended in 800 mL of 25 mM HEPES buffer (pH 7.5) containing 10% Glycerol, 0.3 M NaCl, 1 mM EDTA, 25 mM Sodium β-Glycerophosphate and 1 mM Sodium Orthovanadate, and supplemented with Complete Protease Inhibitor (Roche). The obtained suspension was homogenized two times in a polytron homogenizer (Kinematica) at 20,000 rpm for 20 sec. The obtained cell disruption solution was clarified by centrifugation at 186,000×g for 60 min and the supernatant was passed through Ni-NTA Superflow Cartridges (5 mL) (QUIAGEN). Furthermore, it was washed with 25 mM HEPES buffer (pH 7.5) containing 20 mM Imidazole, 0.3 M NaCl, and eluted with 25 mM HEPES buffer (pH 7.5) containing 250 mM Imidazol, 0.3 M NaCl. The eluate was concentrated by Amicon Ultra-15 (Nihon Millipore K.K.) having a fraction molecular weight of 50K. The obtained concentrate was subjected to gel filtration with 50 mM HEPES buffer (pH 7.5) containing 10 mM MgCl2, 2 mM dithiothreitol, 10 mM tripotassium citrate, 0.3 M NaCl by using HiLoad 26/60 Superdex200 prep grade gel filtration column (GE Healthcare) to give ACC1. The obtained ACC1 was cryopreserved at −80° C.
(3) Measurement of ACC1 Inhibitory Activity
ACC1 obtained in the above-mentioned (2) was diluted with an enzyme reaction buffer (50 mM HEPES (pH 7.5), 10 mM MgCl2, 10 mM Tripottasium Citrate, 2 mM Dithiothreitol, 0.001% Fatty acid free BSA) to a concentration of 0.2 μg/ml, and the mixture was added to each well of a 384 well assay plate by 10 μl. A test compound dissolved in dimethyl sulfoxide (DMSO) was diluted with an enzyme reaction buffer and the resulting solution (5 μl) was added to each well. The mixture was incubated at room temperature for 60 min. Then, a substrate solution (50 mM KHCO3, 200 μM ATP, 200 μM Acetyl-CoA, 5 μl) was added to each well, and the mixture was reacted at room temperature for 30 min. The reaction was quenched by adding a reaction quenching liquid (1.3% formic acid, 0.2 μM Malonyl-^13C3-CoA) by 60 μL each to the obtained reaction mixtures (test compound addition group).
In addition, a reaction was performed in the same manner as above and without adding the test compound (test compound non-addition group). […]

HCT116 cells = test: Growth inhibitory activity on HCT116 cell (CellTiter-Glo); type: cell-based; details: Homo sapiens, HCT-116, 72 h, table head: 10 μM (text b2498: 1 μM), 3 days incubation, read-out: HCT116 cell proliferation inhibitory rate (%) at 10 μM
Procedure: The growth inhibitory activity of the compound on HCT116 cell was evaluated by the following method.
HCT116 cells were seeded in a 384 well blackplate at 900 cells/30 μL/well, and maintained in an RPMI medium (Wako)) containing an assay medium (2% fetal bovine serum, 50 Unit/mL penicillin, 50 μg/mL streptomycin (Invitrogen). The next day, a test compound dissolved in dimethyl sulfoxide (DMSO) was diluted with the assay medium, and the obtained compound solution was added by 10 μL to each well of a plate containing HCT116 cells and incubated at 37° C., 5% CO2 (test compound addition group).
A similar reaction was performed without adding a test compound (test compound non-addition group).
Furthermore, a similar reaction was performed under the conditions without adding HCT116 cell and a test compound (control group).
After 3 days, 20 μL of a CellTiter-Glo reagent (Promega KK) was added to the well, and the mixture was stirred for 10 min. Thereafter, the luminescence value of each well was measured by the EnVision™ multilabel counter (Perkin Elmer Inc.).
The HCT116 cell proliferation inhibitory rate (%) of the test compound was determined by the following calculation formula. (1−(luminescence of test compound addition group−luminescence of control group)÷(luminescence of test compound nonaddition group−luminescence of control group))×100

SMILES: CCCn1cc(Oc2ccc(-c3nc4ccc(C(C)NC(C)=O)cc4o3)cn2)ccc1=O (centres unmarked) [Example 102, N-(1-(2-(6-((6-oxo-1-propyl-1,6-dihydropyridin-3-yl)oxy)pyridin-3-yl)-1,3-benzoxazol-6-yl)ethyl)acetamide]
inhibition at 10 µM (human ACC1): 94%
inhibition at 10 µM (HCT116 cells): 30%

SMILES: CC(=O)NC(C)c1cc2cc(-c3cnc(Oc4cccc(OCC5CC5)c4)cn3)ccc2o1 (centres unmarked) [Example 103, N-(1-(5-(5-(3-(cyclopropylmethoxy)phenoxy)pyrazin-2-yl)-1-benzofuran-2-yl)ethyl)acetamide]
inhibition at 10 µM (human ACC1): 100%
inhibition at 10 µM (HCT116 cells): 29%

SMILES: CC(=O)NC(C)c1ccc2nc(-c3ccc(Oc4cccc(OCC5CC5)c4)cc3)oc2n1 (centres unmarked) [Example 104, N-(1-(2-(4-(3-(cyclopropylmethoxy)phenoxy)phenyl)[1,3]oxazolo[5,4-b]pyridin-5-yl)ethyl)acetamide]
inhibition at 10 µM (human ACC1): 98%
inhibition at 10 µM (HCT116 cells): 30%

SMILES: CCCCn1cc(Oc2ccc(-c3nc4ccc(C(C)NC(C)=O)cc4o3)cn2)ccc1=O (centres unmarked) [Example 105, N-(1-(2-(6-((1-butyl-6-oxo-1,6-dihydropyridin-3-yl)oxy)pyridin-3-yl)-1,3-benzoxazol-6-yl)ethyl)acetamide]
inhibition at 10 µM (human ACC1): 96%
inhibition at 10 µM (HCT116 cells): 46%

SMILES: CC(NC(N)=O)c1ccc2nc(-c3ccc(Oc4cccc(OCC(C)(F)F)c4)nc3)oc2c1 (centres unmarked) [Example 107, 1-(1-(2-(6-(3-(2,2-difluoropropoxy)phenoxy)pyridin-3-yl)-1,3-benzoxazol-6-yl)ethyl)urea]
inhibition at 10 µM (human ACC1): 97%
inhibition at 10 µM (HCT116 cells): 32%

SMILES: CC(NC(N)=O)c1ccc2nc(-c3ccc(Oc4cccc(OCC5CC5)c4)nc3)oc2c1F (centres unmarked) [Example 108, 1-(1-(2-(6-(3-(cyclopropylmethoxy)phenoxy)pyridin-3-yl)-7-fluoro-1,3-benzoxazol-6-yl)ethyl)urea]
inhibition at 10 µM (human ACC1): 100%
inhibition at 10 µM (HCT116 cells): 36%

SMILES: CC(NC(N)=O)c1ccc2nc(-c3cnc(Oc4cccc(OCC5CC5)c4)cn3)oc2c1 (centres unmarked) [Example 109, 1-(1-(2-(5-(3-(cyclopropylmethoxy)phenoxy)pyrazin-2-yl)-1,3-benzoxazol-6-yl)ethyl)urea]
inhibition at 10 µM (human ACC1): 97%
inhibition at 10 µM (HCT116 cells): 27%

The next lines start with results.

inhibition at 10 µM (human ACC1): 92%
SMILES: CC(=O)NC(C)c1ccc2nc(-c3cnc(Oc4cccc(OCC5CC5)c4)cc3C)oc2c1 (centres unmarked) [Example 97, N-(1-(2-(6-(3-(cyclopropylmethoxy)phenoxy)-4-methylpyridin-3-yl)-1,3-benzoxazol-6-yl)ethyl)acetamide]
inhibition at 10 µM (HCT116 cells): 22%

inhibition at 10 µM (human ACC1): 98%
SMILES: C[C@H](NC(N)=O)c1ccc2nc(-c3ccc(Oc4cccc(OCC5CC5)c4)nc3)oc2c1 [Example 98b, 1-((1S)-1-(2-(6-(3-(cyclopropylmethoxy)phenoxy)pyridin-3-yl)-1,3-benzoxazol-6-yl)ethyl)urea]
inhibition at 10 µM (HCT116 cells): 47%

inhibition at 10 µM (human ACC1): 98%
SMILES: COC(=O)NC(C)c1ccc2nc(-c3ccc(Oc4cccc(OCC5CC5)c4)nc3)oc2c1 (centres unmarked) [Example 99, methyl (1-(2-(6-(3-(cyclopropylmethoxy)phenoxy)pyridin-3-yl)-1,3-benzoxazol-6-yl)ethyl)carbamate]
inhibition at 10 µM (HCT116 cells): 26%

inhibition at 10 µM (human ACC1): 94%
SMILES: CNC(=O)NC(C)c1ccc2nc(-c3ccc(Oc4cccc(OCC5CC5)c4)nc3)oc2c1 (centres unmarked) [Example 100, 1-(1-(2-(6-(3-(cyclopropylmethoxy)phenoxy)pyridin-3-yl)-1,3-benzoxazol-6-yl)ethyl)-3-methylurea]
inhibition at 10 µM (HCT116 cells): 28%

inhibition at 10 µM (human ACC1): 96%
SMILES: CC(NC(=O)N(C)C)c1ccc2nc(-c3ccc(Oc4cccc(OCC5CC5)c4)nc3)oc2c1 (centres unmarked) [Example 101, 3-(1-(2-(6-(3-(cyclopropylmethoxy)phenoxy)pyridin-3-yl)-1,3-benzoxazol-6-yl)ethyl)-1,1-dimethylurea]
inhibition at 10 µM (HCT116 cells): 30%

inhibition at 10 µM (human ACC1): 103%
SMILES: CC(NC(N)=O)c1ccc2nc(-c3ccc(Oc4cncc(OCC5CC5)c4)nc3)oc2c1 (centres unmarked) [Example 106, 1-(1-(2-(6-((5-(cyclopropylmethoxy)pyridin-3-yl)oxy)pyridin-3-yl)-1,3-benzoxazol-6-yl)ethyl)urea]
inhibition at 10 µM (HCT116 cells): 33%
